Where two headings read alike, the source gives them in different places.
Molecular target: T1, HIF-PHD2 (Homo sapiens, UniProt Q9GZT9)
T1 construct: FLAG-tagged full length PHD2 expressed in and purified from baculovirus-infected Sf9 cells; FLAG; made in house; host or cells: baculovirus-infected Sf9 cells
Assay: Assay for HIF-PHD2 Catalytic Activity (PHD2 Binding Activity)
Assay type: biochemical

T1 sequence (Q9GZT9 whole entry): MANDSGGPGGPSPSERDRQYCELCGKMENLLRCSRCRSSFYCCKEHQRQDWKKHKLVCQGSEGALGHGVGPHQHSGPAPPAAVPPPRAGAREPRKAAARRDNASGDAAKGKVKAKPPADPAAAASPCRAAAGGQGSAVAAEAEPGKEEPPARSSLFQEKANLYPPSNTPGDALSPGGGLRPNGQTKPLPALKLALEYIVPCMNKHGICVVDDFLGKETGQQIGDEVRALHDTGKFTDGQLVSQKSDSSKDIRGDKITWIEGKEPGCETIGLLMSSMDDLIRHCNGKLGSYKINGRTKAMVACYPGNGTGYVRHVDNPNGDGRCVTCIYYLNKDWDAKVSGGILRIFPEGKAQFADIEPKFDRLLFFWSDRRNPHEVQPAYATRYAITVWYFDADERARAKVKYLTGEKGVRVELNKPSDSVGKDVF

SMILES | IC50 [nM] | IC50 (read-out: PHD2 Binding Activity IC50) [nM]
CCOC(=O)C1CN(Cc2ncccc2C)CCC12C(=O)N(c1ccc(-c3ccccc3)cc1)C(=O)N2c1cc(O)ncn1 (single isomer, unassigned) [Compound 3-10, Ethyl 3-biphenyl-4-yl-1-(6-hydroxypyrimidin-4-yl)-8-[(3-methylpyridin-2-yl)methyl]-2,4-dioxo-1,3,8-triazaspiro[4.5]decane-6-carboxylate] | 0.5 to 20 | 
Cc1cccnc1CN1CCC2(CC1)C(=O)N(c1ccccc1)C(=O)N2c1nccc(O)n1 [Compound 1-3, 1-(4-hydroxypyrimidin-2-yl)-8-[(3-methylpyridin-2-yl)methyl]-3-phenyl-1,3,8-triazaspiro[4.5]decane-2,4-dione] | > 50 | 
Cc1cccnc1CN1CCC2(CC1)C(=O)N(c1ccc(-c3ccccc3)cc1)C(=O)N2c1ccccc1 [Compound 1-4, 3-biphenyl-4-yl-8-[(3-methylpyridin-2-yl)methyl]-1-phenyl-1,3,8-triazaspiro[4.5]decane-2,4-dione] | 0.5 to 20 | 
Cc1cccnc1CN1CCC2(CC1)C(=O)N(c1ccc(-c3ccccc3)cc1)C(=O)N2c1cc(C(=O)O)ccn1 [Compound 1-5, 2-{3-biphenyl-4-yl-8-[(3-methylpyridin-2-yl)methyl]-2,4-dioxo-1,3,8-triazaspiro[4.5]dec-1-yl}isonicotinic acid] | 0.5 to 20 | 
Cc1cccnc1CN1CCC2(CC1)C(=O)N(c1ccc(-c3ccccc3)cc1)C(=O)N2c1cccc(F)n1 [Compound 1-6, 3-biphenyl-4-yl-1-(6-fluoropyridin-2-yl)-8-[(3-methylpyridin-2-yl)methyl]-1,3,8-triazaspiro[4.5]decane-2,4-dione] | 0.5 to 20 | 
Cc1cccnc1CN1CCC2(CC1)C(=O)N(c1ccc(-c3ccccc3)cc1)C(=O)N2c1ccc(C#N)cn1 [Compound 1-7, 6-{3-biphenyl-4-yl-8-[(3-methylpyridin-2-yl)methyl]-2,4-dioxo-1,3,8-triazaspiro[4.5]dec-1-yl}nicotinonitrile] | 0.5 to 20 | 
Cc1cccnc1CN1CCC2(CC1)C(=O)N(c1ccc(-c3ccccc3)cc1)C(=O)N2c1ccncc1 [Compound 1-8, 3-biphenyl-4-yl-8-[(3-methylpyridin-2-yl)methyl]-1-pyridin-4-yl-1,3,8-triazaspiro[4.5]decane-2,4-dione] | 20 to 50 | 
Cc1cccnc1CN1CCC2(CC1)C(=O)N(c1ccc(-c3ccccc3)cc1)C(=O)N2c1ncc(O)cn1 [Compound 1-10, 3-biphenyl-4-yl-1-(5-hydroxypyrimidin-2-yl)-8-[(3-methylpyridin-2-yl)methyl]-1,3,8-triazaspiro[4.5]decane-2,4-dione] | 0.5 to 20 | 
COc1cccc(N2C(=O)N(c3ccc(-c4ccccc4)cc3)C(=O)C23CCN(Cc2ncccc2C)CC3)n1 [Compound 1-11, 3-biphenyl-4-yl-1-(6-methoxypyridin-2-yl)-8-[(3-methylpyridin-2-yl)methyl]-1,3,8-triazaspiro[4.5]decane-2,4-dione] | 0.5 to 20 | 
COC(=O)c1cccc(N2C(=O)N(c3ccc(-c4ccccc4)cc3)C(=O)C23CCN(Cc2ncccc2C)CC3)n1 [Compound 1-13, methyl 6-{3-biphenyl-4-yl-8-[(3-methylpyridin-2-yl)methyl]-2,4-dioxo-1,3,8-triazaspiro[4.5]dec-1-yl}pyridine-2-carboxylate] | 0.5 to 20 | 
Cc1cccnc1CN1CCC2(CC1)C(=O)N(c1ccc(-c3ccccc3)cc1)C(=O)N2c1cccc(C(=O)O)n1 [Compound 1-14, 6-{3-biphenyl-4-yl-8-[(3-methylpyridin-2-yl)methyl]-2,4-dioxo-1,3,8-triazaspiro[4.5]dec-1-yl}pyridine-2-carboxylic acid] | 0.5 to 20 | 
COc1ccnc(N2C(=O)N(c3ccc(-c4nnn[nH]4)cc3)C(=O)C23CCN(Cc2ncccc2C)CC3)n1 [Compound 1-15, 1-(4-methoxypyrimidin-2-yl)-8-[(3-methylpyridin-2-yl)methyl]-3-[4-(1H-tetrazol-5-yl)phenyl]-1,3,8-triazaspiro[4.5]decane-2,4-dione] | 20 to 50 | 
Cc1cccnc1CN1CCC2(CC1)C(=O)N(c1ccc(-c3nnn[nH]3)cc1)C(=O)N2c1nccc(O)n1 [Compound 1-16, 1-(4-hydroxypyrimidin-2-yl)-8-[(3-methylpyridin-2-yl)methyl]-3-[4-(1H-tetrazol-5-yl)phenyl]-1,3,8-triazaspiro[4.5]decane-2,4-dione] | > 50 | 
Cc1cccnc1CN1CCC2(CC1)C(=O)N(c1ccc(C(=O)O)cc1)C(=O)N2c1nccc(O)n1 [Compound 1-17, 4-{1-(4-hydroxypyrimidin-2-yl)-8-[(3-methylpyridin-2-yl)methyl]-2,4-dioxo-1,3,8-triazaspiro[4.5]dec-3-yl}benzoic acid] | > 50 | 
Cc1cccnc1CN1CCC2(CC1)C(=O)N(c1ccc(-c3ccccc3)cc1)C(=O)N2c1cccnc1 [Compound 1-18, 3-biphenyl-4-yl-8-[(3-methylpyridin-2-yl)methyl]-1-pyridin-3-yl-1,3,8-triazaspiro[4.5]decane-2,4-dione] | 0.5 to 20 | 
COc1ccnc(N2C(=O)N(c3ccc(-c4ccccc4)cc3)C(=O)C23CCN(Cc2nccn2CC(=O)OC(C)(C)C)CC3)n1 [Compound 1-19, tert-butyl (2-{[3-biphenyl-4-yl-1-(4-methoxypyrimidin-2-yl)-2,4-dioxo-1,3,8-triazaspiro[4,5]dec-8-yl]methyl}-1H-imidazol-1-yl)acetate] | > 50 | 
COc1ccnc(N2C(=O)N(c3ccc(-c4ccccc4)cc3)C(=O)C23CCN(Cc2nccn2CC(=O)O)CC3)n1 [Compound 1-21, (2-{[3-biphenyl-4-yl-1-(4-methoxypyrimidin-2-yl)-2,4-dioxo-1,3,8-triazaspiro[4.5]dec-8-yl]methyl}-1H-imidazol-1-yl)acetic acid] | 0.5 to 20 | 
COc1ccnc(N2C(=O)N(c3ccc(-c4ccccc4)cc3)C(=O)C23CCN(Cc2nccn2CCC(=O)O)CC3)n1 [Compound 1-22, 3-(2-{[3-biphenyl-4-yl-1-(4-methoxypyrimidin-2-yl)-2,4-dioxo-1,3,8-triazaspiro[4.5]dec-8-yl]methyl}-1H-imidazol-1-yl)propanoic acid] | 0.5 to 20 | 
O=C(O)Cn1ccnc1CN1CCC2(CC1)C(=O)N(c1ccc(-c3ccccc3)cc1)C(=O)N2c1nccc(O)n1 [Compound 1-23, (2-{[3-biphenyl-4-yl-1-(4-hydroxypyrimidin-2-yl)-2,4-dioxo-1,3,8-triazaspiro[4.5]dec-8-yl]methyl}-1H-imidazol-1-yl)acetic acid] | 0.5 to 20 | 
O=C(O)CCn1ccnc1CN1CCC2(CC1)C(=O)N(c1ccc(-c3ccccc3)cc1)C(=O)N2c1nccc(O)n1 [Compound 1-24, 3-(2-{[3-biphenyl-4-yl-1-(4-hydroxypyrimidin-2-yl)-2,4-dioxo-1,3,8-triazaspiro[4.5]dec-8-yl]methyl}-1H-imidazol-1-yl)propanoic acid] | 0.5 to 20 | 
COc1ccnc(N2C(=O)N(c3ccc(C#N)cc3)C(=O)C23CCN(Cc2ncccc2C)CC3)n1 [Compound 1-25, 4-{1-(4-methoxypyrimidin-2-yl)-8-[(3-methylpyridin-2-yl)methyl]-2,4-dioxo-1,3,8-triazaspiro[4.5]dec-3-yl}benzonitrile] | > 50 | 
CCOC(=O)c1ccc(N2C(=O)N(c3nccc(OC)n3)C3(CCN(Cc4ncccc4C)CC3)C2=O)cc1 [Compound 1-26, ethyl 4-{1-(4-methoxypyrimidin-2-yl)-8-[(3-methylpyridin-2-yl)methyl]-2,4-dioxo-1,3,8-triazaspiro[4.5]dec-3-yl}benzoate] | 0.5 to 20 | 
Cc1cccnc1CN1CCC2(CC1)C(=O)N(c1ccc(-c3ccccc3)cc1)C(=O)N2c1cccs1 [Compound 1-27, 3-biphenyl-4-yl-8-[(3-methylpyridin-2-yl)methyl]-1-(2-thienyl)-1,3,8-triazaspiro[4.5]decane-2,4-dione] |  | 0.5 to 20
COc1ccnc(N2C(=O)N(c3ccc(-c4ccccc4)cc3)C(=O)C23CCN(Cc2ncccc2Br)CC3)n1 [Compound 1-28, 3-biphenyl-4-yl-8-[(3-bromopyridin-2-yl)methyl]-1-(4-methoxypyrimidin-2-yl)-1,3,8-triazaspiro[4.5]decane-2,4-dione] | 20 to 50 | 
COc1ccnc(N2C(=O)N(c3ccc(-c4ccccc4)cc3)C(=O)C23CCN(Cc2ncccc2C)CC3)n1 [Compound 1-29, 3-biphenyl-4-yl-1-(4-methoxypyrimidin-2-yl)-8-[(3-methylpyridin-2-yl)methyl]-1,3,8-triazaspiro[4.5]decane-2,4-dione] | 0.5 to 20 | 
COc1ccnc(N2C(=O)N(c3ccccc3)C(=O)C23CCN(Cc2ncccc2C)CC3)n1 [Compound 1-30, 1-(4-methoxypyrimidin-2-yl)-8-[(3-methylpyridin-2-yl)methyl]-3-phenyl-1,3,8-triazaspiro[4.5]decane-2,4-dione] | > 50 | 
O=C1N(c2ccc(-c3ccccc3)cc2)C(=O)C2(CCN(Cc3ncccc3Br)CC2)N1c1nccc(O)n1 [Compound 1-31, 3-biphenyl-4-yl-8-[(3-bromopyridin-2-yl)methyl]-1-(4-hydroxypyrimidin-2-yl)-1,3,8-triazaspiro[4.5]decane-2,4-dione] | > 50 | 
COc1ccnc(N2C(=O)N(c3ccc(-c4ccccc4)cc3)C(=O)C23CCN(Cc2ncccc2C#N)CC3)n1 [Compound 1-40, 2-{[3-biphenyl-4-yl-1-(4-methoxypyrimidin-2-yl)-2,4-dioxo-1,3,8-triazaspiro[4.5]dec-8-yl]methyl}nicotinonitrile] | > 50 | 
COc1ccnc(N2C(=O)N(c3ccc(-c4ccccc4)cc3)C(=O)C23CCN(Cc2ncccc2-c2nnn[nH]2)CC3)n1 [Compound 1-41, 3-biphenyl-4-yl-1-(4-methoxypyrimidin-2-yl)-8-{[3-(1H-tetrazol-5-yl)pyridin-2-yl]methyl}-1,3,8-triazaspiro[4.5]decane-2,4-dione] | > 50 | 
Cc1cccnc1CN1CCC2(CC1)C(=O)N(c1ccc(-c3ccccc3)cc1)C(=O)N2c1ncccc1O [Compound 1-43, 3-biphenyl-4-yl-1-(3-hydroxypyridin-2-yl)-8-[(3-methylpyridin-2-yl)methyl]-1,3,8-triazaspiro[4.5]decane-2,4-dione] | 20 to 50 | 

Source: patent US8921555B2, “Substituted-1,3,8-triazaspiro[4.5]decane-2,4-diones” (Merck Sharp & Dohme Corp., priority 2009, dated 2014)
